Experimental data as given in patent US20240041042A1, “1-(PYRIDYL)-5-AZINYLPYRAZOLE DERIVATIVES, AND THEIR USE FOR CONTROL OF UNDESIRED PLANT GROWTH” (Bayer Aktiengesellschaft, priority 2020, published 2024).

Columns and labels:
Assay type in all cases: in vivo
Setaria viridis (SETVI) [1] = assay: Pre-emergence herbicidal action against SETVI
Summary of the method: (§1)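 Pre-emergence soil-surface spray, WP/EC formulation, 0.5% additive, 600 l/ha water, rates of 320 g/ha or lower. Greenhouse, ~3 wk. Visual score, % of untreated control (100% = plants dead, 0% = like control).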

Avena fatua (AVEFA) [2] = assay: Pre-emergence herbicidal action against AVEFA; conditions: 320 g/ha, visual scoring after about 3 weeks vs untreated controls
Summary of the method: as §1

[3] = tested on: Digitaria sanguinalis (DIGSA); assay: Post-emergence herbicidal action against DIGSA; conditions: visual rating about 3 weeks after treatment
Summary of the method: (§2)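 Doses of 320 g/ha or lower, suffixes a, b and c marking different dosages, were applied post-emergence at the one-leaf stage in 600 l/ha water with 0.5% additive. Damage was assessed visually after about 3 weeks in the greenhouse.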

[4] = tested on: Polygonum convolvulus (POLCO); assay: Post-emergence herbicidal action against POLCO; conditions: dosage 320 g/ha
Summary of the method: as §2

[5] = tested on: Alopecurus myosuroides (ALOMY); assay: Post-emergence herbicidal action against ALOMY; conditions: visual rating about 3 weeks after treatment vs untreated controls (100% = plants have died, 0% = like control plants)
Summary of the method: as §2

[6] = tested on: Echinochloa crus-galli (ECHCG); assay: Post-emergence herbicidal action against ECHCG
Summary of the method: as §2

Lolium rigidum (LOLRI) [7] = assay: Pre-emergence herbicidal action against LOLRI
Summary of the method: as §1

[8] = tested on: Polygonum convolvulus (POLCO); assay: Pre-emergence herbicidal action against POLCO
Summary of the method: as §1

[9] = tested on: Echinochloa crus-galli (ECHCG); assay: Pre-emergence herbicidal action against ECHCG
Summary of the method: as §1

[10] = tested on: Matricaria inodora (MATIN); assay: Pre-emergence herbicidal action against MATIN
Summary of the method: as §1

[11] = tested on: Amaranthus retroflexus (AMARE); assay: Pre-emergence herbicidal action against AMARE; conditions: visual scoring after about 3 weeks vs untreated controls
Summary of the method: as §1

Oryza sativa (ORYSA) = conditions: crop plant compatibility, 80 g/ha, effect in comparison to untreated controls
Summary of the method: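 One-leaf-stage crops (2–3 wk post-sowing, sandy loam, greenhouse) sprayed on green parts; 0.5% additive, 600 l/ha water. Rated by eye ~3 wk later, % vs untreated; suffixes a/b/c mark different dosages.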

[12] = tested on: Verconica persica (VERPE); assay: Pre-emergence herbicidal action against VERPE
Summary of the method: as §1

Avena fatua (AVEFA) [13] = assay: Post-emergence herbicidal action against AVEFA; conditions: visual rating about 3 weeks after treatment
Summary of the method: as §2

[14] = tested on: Pharbitis purpurea (PHBPU); assay: Pre-emergence herbicidal action against PHBPU
Summary of the method: as §1

[15] = tested on: Digitaria sanguinalis (DIGSA); assay: Pre-emergence herbicidal action against DIGSA
Summary of the method: as §1

[16] = tested on: Alopecurus myosuroides (ALOMY); assay: Pre-emergence herbicidal action against ALOMY; conditions: scored visually after about 3 weeks, 100% = plants have died
Summary of the method: as §1

[17] = tested on: Abutilon theophrasti (ABUTH); assay: Pre-emergence herbicidal action against ABUTH; conditions: Dosage column 320 g/ha (title prints 3200 g/ha); scored visually after about 3 weeks; 100% = plants have died
Summary of the method: as §1

[18] = tested on: Pharbitis purpurea (PHBPU); assay: Post-emergence herbicidal action against PHBPU
Summary of the method: as §2

Lolium rigidum (LOLRI) [19] = assay: Post-emergence herbicidal action against LOLRI
Summary of the method: as §2

[20] = tested on: Verconica persica (VERPE); assay: Post-emergence herbicidal action against VERPE; conditions: 320 g/ha, VERPE
Summary of the method: as §2

[21] = tested on: Abutilon theophrasti (ABUTH); assay: Post-emergence herbicidal action against ABUTH; conditions: 320 g/ha, visual rating about 3 weeks after treatment vs untreated controls (100% = plants have died, 0% = like control plants)
Summary of the method: as §2

Viola tricolor (VIOTR) [22] = assay: Pre-emergence herbicidal action against VIOTR
Summary of the method: as §1

Viola tricolor (VIOTR) [23] = assay: Post-emergence herbicidal action against VIOTR
Summary of the method: as §2

Setaria viridis (SETVI) [24] = assay: Post-emergence herbicidal action against SETVI; conditions: dosage 320 g/ha
Summary of the method: as §2

[25] = tested on: Matricaria inodora (MATIN); assay: Post-emergence herbicidal action against MATIN; conditions: dosage 320 g/ha
Summary of the method: as §2

[26] = 80 g/ha, visual scoring after about 3 weeks vs untreated controls

Row | SMILES | Pre-emergence action against SETVI in % (Setaria viridis (SETVI) [1]; dosage 80 g/ha) [%] | Pre-emergence action against SETVI in % (Setaria viridis (SETVI) [1]; dosage 320 g/ha) [%] | Pre-emergence action against AVEFA in % (Avena fatua (AVEFA) [2]) [%] | Post-emergence action against DIGSA in % ([3]; 80 g/ha) [%] | Post-emergence action against DIGSA in % ([3]; 320 g/ha) [%] | Post-emergence action against POLCO in % [4] [%] | Post-emergence action against ECHCG in % ([6]; dosage 80 g/ha) [%] | Post-emergence action against ECHCG in % ([6]; dosage 320 g/ha) [%] | Pre-emergence action against LOLRI in % (Lolium rigidum (LOLRI) [7]; dosage 320 g/ha) [%] | Pre-emergence action against POLCO in % ([8]; dosage 320 g/ha) [%] | Pre-emergence action against ECHCG in % ([9]; dosage 320 g/ha) [%] | Pre-emergence action against MATIN in % ([10]; dosage 80 g/ha) [%] | Pre-emergence action against MATIN in % ([10]; dosage 320 g/ha) [%] | Pre-emergence action against AMARE in % ([11]; 80 g/ha) [%] | Pre-emergence action against AMARE in % ([11]; 320 g/ha) [%] | Pre-emergence action against VERPE in % ([12]; dosage 320 g/ha) [%] | Post-emergence action against AVEFA in % (Avena fatua (AVEFA) [13]; 320 g/ha) [%] | Pre-emergence action against PHBPU in % ([14]; dosage 320 g/ha) [%] | Pre-emergence action against DIGSA in % [15, 26] [%] | Pre-emergence action against DIGSA in % ([15]; dosage 320 g/ha) [%] | other results
1 | C[C@@H](Oc1nn(-c2nc(F)ccc2F)c(-c2ccc(F)nc2)c1C1CC1)C(=O)O [Example I-296] | 90 | 100 | 90 | 80 | 90 | 80 | 80 | 80 | 100 | 90 | 100 | 80 | 90 | 80 | 90 | 100 | 80 | 90 | 90 | 100 | Post-emergence action against ALOMY in % ([5]; 80 g/ha): 80%; Post-emergence action against ALOMY in % ([5]; 320 g/ha): 90%; Pre-emergence action against POLCO in % ([8]; dosage 80 g/ha): 80%; Post-emergence action against ORYSA in % (Oryza sativa (ORYSA)): 0%; Pre-emergence action against VERPE in % ([12]; dosage 80 g/ha): 90%; Post-emergence action against AVEFA in % (Avena fatua (AVEFA) [13]; 80 g/ha): 80%; Pre-emergence action against ALOMY ([16]; 80 g/ha): 80%; Pre-emergence action against ALOMY ([16]; 320 g/ha): 100%; Pre-emergence action against ABUTH [17]: 80%; Post-emergence action against PHBPU in % ([18]; dosage 320 g/ha): 90%; Post-emergence action against LOLRI in % (Lolium rigidum (LOLRI) [19]; dosage 80 g/ha): 80%; Post-emergence action against LOLRI in % (Lolium rigidum (LOLRI) [19]; dosage 320 g/ha): 80%; Post-emergence action against VERPE in % [20]: 80%; Post-emergence action against ABUTH in % [21]: 80%; Pre-emergence action against VIOTR in % (Viola tricolor (VIOTR) [22]; 320 g/ha, Viola tricolor): 100%; Pre-emergence action against VIOTR in % (Viola tricolor (VIOTR) [22]; dosage 80 g/ha): 90%; Post-emergence action against VIOTR in % (Viola tricolor (VIOTR) [23]; 80 g/ha): 80%; Post-emergence action against VIOTR in % (Viola tricolor (VIOTR) [23]; 320 g/ha): 80%; Post-emergence action against SETVI in % (Setaria viridis (SETVI) [24]): 80%
2 | COC(=O)[C@@H](C)Oc1nn(-c2nc(F)ccc2F)c(-c2cncc(F)c2)c1Cl [Example I-154] | 90 | 100 | 80 | 80 | 90 | 80 | 80 | 80 | 100 | 90 | 100 | 90 | 100 | 90 | 100 | 100 | 80 | 90 | 90 | 100 | Pre-emergence action against LOLRI in % (Lolium rigidum (LOLRI) [7]; dosage 80 g/ha): 90%; Pre-emergence action against ECHCG in % ([9]; dosage 80 g/ha): 90%; Pre-emergence action against PHBPU in % ([14]; dosage 80 g/ha): 80%; Pre-emergence action against ALOMY ([16]; 80 g/ha): 80%; Pre-emergence action against ALOMY ([16]; 320 g/ha): 90%; Pre-emergence action against ABUTH [17]: 90%; Post-emergence action against PHBPU in % ([18]; dosage 80 g/ha): 80%; Post-emergence action against PHBPU in % ([18]; dosage 320 g/ha): 90%; Post-emergence action against LOLRI in % (Lolium rigidum (LOLRI) [19]; dosage 80 g/ha): 80%; Post-emergence action against LOLRI in % (Lolium rigidum (LOLRI) [19]; dosage 320 g/ha): 90%; Pre-emergence action against VIOTR in % (Viola tricolor (VIOTR) [22]; 320 g/ha, Viola tricolor): 100%; Pre-emergence action against VIOTR in % (Viola tricolor (VIOTR) [22]; dosage 80 g/ha): 100%; Post-emergence action against MATIN in % [25]: 80%; Post-emergence action against VIOTR in % (Viola tricolor (VIOTR) [23]; 320 g/ha): 80%; Post-emergence action against SETVI in % (Setaria viridis (SETVI) [24]): 80%
